≈ marks a conversion by molar mass, not a printed value.
System: Mtb H37Rv
Assay: Microplate Alamar blue assay
Format: cell-based, Mycobacterium tuberculosis
Conditions: MABA, 2-fold serial dilution, read on day seven

`O=c1c2ccccc2[se]n1C12CC3CC(CC(C3)C1)C2` [1l, 2-((3R,5S)-Adamantan-1-yl)benzo[d][1,2]-selenazol-3(2H)-one] showed an MIC of 50 µg/mL (≈ 150 µM).

Molecular target: Mtb Ag85C (Mycobacterium tuberculosis, UniProt P9WQN9)
Assay: Fluorometric resorufin butyrate assay, apparent IC50 after 15 min incubation
Format: biochemical
Conditions: not given

Mtb Ag85C, sequence (P9WQN9 46-340 limits assumed): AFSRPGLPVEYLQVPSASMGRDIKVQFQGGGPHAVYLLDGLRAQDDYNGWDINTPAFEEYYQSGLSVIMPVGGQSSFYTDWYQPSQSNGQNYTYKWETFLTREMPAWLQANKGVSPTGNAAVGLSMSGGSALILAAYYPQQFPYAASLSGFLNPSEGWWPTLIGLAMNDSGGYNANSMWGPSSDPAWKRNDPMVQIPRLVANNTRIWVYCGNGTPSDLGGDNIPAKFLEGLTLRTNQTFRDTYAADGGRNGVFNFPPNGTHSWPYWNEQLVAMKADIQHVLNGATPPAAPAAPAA

Compared with `O=c1c2ccccc2[se]n1-c1ccccc1` [1a, 2-Phenylbenzo[d][1,2]selenazol-3(2H)-one, reference compound], `O=c1c2ccccc2[se]n1-c1ccccc1F` [1i, 2-(2-Fluorophenyl)benzo[d][1,2]selenazol-3(2H)-one] is 5.1-fold lower in IC50: 5120 nM for the first, 1000 nM for the second.

First: COc1ccc(Cn2[se]c3ccccc3c2=O)cc1 [1b, 2-(4-Methoxybenzyl)benzo[d][1,2]selenazol-3(2H)-one]
Second: COc1ccc(-n2[se]c3ccccc3c2=O)cc1 [1d, 2-(4-Methoxyphenyl)benzo[d][1,2]selenazol-3(2H)-one]
The IC50 of the first is 2.2-fold lower: 540 nM for the first, 1200 nM for the second.

First: COc1ccccc1Cn1[se]c2ccccc2c1=O [1c, 2-(2-Methoxybenzyl)benzo[d][1,2]selenazol-3(2H)-one]
Second: O=c1c2ccccc2[se]n1Cc1ccccc1 [1e, 2-Benzylbenzo[d][1,2]selenazol-3(2H)-one]
The IC50 of the first is 4.4-fold higher: 28600 nM for the first, 6500 nM for the second. The second is the more potent here.

`O=c1c2ccccc2[se]n1CC1CCCCC1` [1g, 2-(Cyclohexylmethyl)benzo[d][1,2]selenazol-3(2H)-one] and `O=c1c2ccccc2[se]n1C1CCCCC1` [1n, 2-Cyclohexylbenzo[d][1,2]selenazol-3(2H)-one] are within 1.5-fold of each other in IC50: 5300 nM for the first, 3700 nM for the second.

Going from `O=c1c2ccccc2[se]n1-c1ccc(F)cc1` [1h, 2-(4-Fluorophenyl)benzo[d][1,2]selenazol-3(2H)-one] to `[N-]=[N+]=Nc1ccc(-n2[se]c3ccccc3c2=O)cc1` [1j, 2-(4-Azidophenyl)benzo[d][1,2]selenazol-3(2H)-one], the IC50 rises from 720 nM to 1100 nM (1.5-fold). The first is the more potent here.

Going from `CC(C)(C)n1[se]c2ccccc2c1=O` [1k, 2-(tert-Butyl)benzo[d][1,2]selenazol-3(2H)-one] to `O=c1c2ccccc2[se]n1C1CCCC1` [1m, 2-Cyclopentylbenzo[d][1,2]selenazol-3(2H)-one], the IC50 rises from 1500 nM to 4100 nM (2.7-fold).

Compared with `[N-]=[N+]=Nc1ccc(NC(=O)c2ccccc2[Se]C#Cc2ccccc2)cc1` [compound 8, N-(4-Azidophenyl)-2-((phenylethynyl)selanyl)-benzamide], `O=C(CCCCC1SC[C@@H]2NC(=O)N[C@H]12)NCCOCCOCCOCCNC(=O)CCC(=O)N1Cc2ccccc2-c2nnn(-c3ccc(-n4[se]c5ccccc5c4=O)cc3)c2-c2ccccc21` (stereo partly drawn) [compound 10, N-(13,16-Dioxo-16-(3-(4-(3-oxobenzo[d][1,2]-selenazol-2(3H)-yl)phenyl)-3,9-dihydro-8H-dibenzo[b,f][1,2,3]-triazolo[4,5-d]azocin-8-yl)-3,6,9-trioxa-12-azahexadecyl)-5-((3aS,6aR)-2-oxohexahydro-1H-thieno[3,4-d]imidazol-4-yl)-pentanamide] is lower in IC50: over 100000 nM for the first, 2020 nM for the second.

From PMC6143291 (The Journal of organic chemistry, 2017)
